Laboratory results: PubChem BioAssay (NCI)
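Results reflect a 48-hour exposure of cells in 96-well plates to compound at five concentrations. Definition used: TGI = concentration required for complete inhibition of growth.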 Where a SMILES comes first, the peptide text is derived from it. [ ]: non-standard residue; d: D form. The star is where a group is joined. Bn2Val = CC(C)[C@@H](C(=O)*)N(Cc1ccccc1)Cc1ccccc1; NH(4-Cl-benzyl) = Clc1ccc(CN*)cc1; NMeV = CN[C@H](C(=O)O)C(C)C; dNMeA = CN[C@H](C)C(=O)O

Legend:
Assay in all cases: NCI tumour cell line growth inhibition, 48 h
NCI/ADR-RES ovarian = test system: NCI/ADR-RES ovarian
UO-31 renal = test system: UO-31 renal
T-47D breast = test system: T-47D breast
SNB-19 CNS = test system: SNB-19 CNS
NCI-H226 lung = test system: NCI-H226 lung
UACC-62 melanoma = test system: UACC-62 melanoma
LOX IMVI melanoma = test system: LOX IMVI melanoma
SNB-75 CNS = test system: SNB-75 CNS
NCI-H460 lung = test system: NCI-H460 lung
IGROV1 ovarian = test system: IGROV1 ovarian

In the case of `C=CCC1C(O[Si](C)(C)C(C)(C)C)C(CO[Si](C)(C)C(C)(C)C)OC1n1ccc(=O)[nH]c1=O` (stereo not drawn), the TGI (NCI/ADR-RES ovarian) is reported as 3.48 µM, the TGI (UO-31 renal) is reported as 2.83 µM and the TGI (T-47D breast) is reported as 4.37 µM. It also gave a TGI (SNB-19 CNS) of 3.06 µM, a TGI (NCI-H226 lung) of 3.02 µM and a TGI (UACC-62 melanoma) of 3.46 µM. The TGI (LOX IMVI melanoma) was 2.25 µM, the TGI (SNB-75 CNS) was 2.79 µM and the TGI (NCI-H460 lung) was 2.93 µM. The TGI (IGROV1 ovarian) was 3.02 µM.
`CCOP(=O)(OCC)/C(=C/c1cccs1)CC(C)=O` showed a TGI (NCI/ADR-RES ovarian) of over 100 µM, a TGI (UO-31 renal) of over 100 µM and a TGI (T-47D breast) of over 100 µM. It also gave a TGI (SNB-19 CNS) of over 100 µM, a TGI (NCI-H226 lung) of over 100 µM and a TGI (UACC-62 melanoma) of over 100 µM. It also gave a TGI (LOX IMVI melanoma) of over 100 µM, a TGI (SNB-75 CNS) of over 100 µM and a TGI (NCI-H460 lung) of over 100 µM. It also gave a TGI (IGROV1 ovarian) of over 100 µM.
For `O=C(CCN1CCN2c3ccccc3CCC2C1)c1ccc(F)cc1` (stereo not drawn), the TGI (NCI/ADR-RES ovarian) was over 100 µM, the TGI (UO-31 renal) was 40.8 µM and the TGI (T-47D breast) was 45.9 µM. For the same compound, the TGI (SNB-19 CNS) was 47.5 µM, the TGI (NCI-H226 lung) was 98.6 µM and the TGI (UACC-62 melanoma) was over 100 µM. The TGI (LOX IMVI melanoma) was over 100 µM, the TGI (SNB-75 CNS) was 44.8 µM and the TGI (NCI-H460 lung) was over 100 µM. The TGI (IGROV1 ovarian) was 47.9 µM.
`C#CCn1c(=O)c(C)cn(/C(=C\C(=O)OCC)C(=O)OCC)c1=O` was tested, and the TGI (NCI/ADR-RES ovarian) was 17.1 µM, the TGI (UO-31 renal) was 25.5 µM and the TGI (T-47D breast) was 5.95 µM. The TGI (SNB-19 CNS) was 39.4 µM, the TGI (NCI-H226 lung) was 36.1 µM and the TGI (UACC-62 melanoma) was 23 µM. The TGI (LOX IMVI melanoma) was over 50.2 µM, the TGI (SNB-75 CNS) was 36 µM and the TGI (NCI-H460 lung) was 8.06 µM. For the same compound, the TGI (IGROV1 ovarian) was 15.3 µM.
Compound `CC(C)C(C/C=C1\CC(CO)(COC(=O)C2CCCCC2)OC1=O)C(C)C` (stereo not drawn) has a TGI (NCI/ADR-RES ovarian) of 45.1 µM, a TGI (UO-31 renal) of 32.1 µM and a TGI (T-47D breast) of 48 µM. It also gave a TGI (SNB-19 CNS) of 31.4 µM, a TGI (NCI-H226 lung) of 38.3 µM and a TGI (UACC-62 melanoma) of over 100 µM. The TGI (LOX IMVI melanoma) was 32.3 µM, the TGI (SNB-75 CNS) was 26.5 µM and the TGI (NCI-H460 lung) was 76 µM. It also gave a TGI (IGROV1 ovarian) of 39.5 µM.
`CCOC(=O)c1cc2c([N+](=O)[O-])c(N)ccc2s1` showed a TGI (NCI/ADR-RES ovarian) of over 100 µM, a TGI (UO-31 renal) of over 100 µM and a TGI (T-47D breast) of over 100 µM. For the same compound, the TGI (SNB-19 CNS) was over 100 µM, the TGI (NCI-H226 lung) was over 100 µM and the TGI (UACC-62 melanoma) was over 100 µM. The TGI (LOX IMVI melanoma) was over 100 µM, the TGI (SNB-75 CNS) was over 100 µM and the TGI (NCI-H460 lung) was over 100 µM. The TGI (IGROV1 ovarian) was over 100 µM.
`CC(Oc1ccccc1Cl)C(=O)NN1C(=O)CSC1c1ccccc1` (stereo not drawn) showed a TGI (NCI/ADR-RES ovarian) of over 100 µM, a TGI (UO-31 renal) of over 100 µM and a TGI (T-47D breast) of over 100 µM. For the same compound, the TGI (SNB-19 CNS) was over 100 µM, the TGI (NCI-H226 lung) was over 100 µM and the TGI (UACC-62 melanoma) was over 100 µM. It also gave a TGI (LOX IMVI melanoma) of over 100 µM, a TGI (SNB-75 CNS) of over 100 µM and a TGI (NCI-H460 lung) of over 100 µM. It also gave a TGI (IGROV1 ovarian) of over 100 µM.
In the case of `c1ccc(CN2CCC(Nc3ccccc3)(c3nnnn3Cc3ccccc3)CC2)cc1`, the TGI (NCI/ADR-RES ovarian) is reported as over 100 µM, the TGI (UO-31 renal) is reported as 26.6 µM and the TGI (T-47D breast) is reported as 72.4 µM. The TGI (SNB-19 CNS) was over 100 µM, the TGI (NCI-H226 lung) was over 100 µM and the TGI (UACC-62 melanoma) was over 100 µM. For the same compound, the TGI (LOX IMVI melanoma) was 43.5 µM, the TGI (SNB-75 CNS) was 92.6 µM and the TGI (NCI-H460 lung) was 53.9 µM. It also gave a TGI (IGROV1 ovarian) of over 100 µM.
With `CN(C)CCCNc1ccc2nnn3c4ccc(O)cc4c(=O)c1c23` the TGI (NCI/ADR-RES ovarian) was 21.8 µM, the TGI (UO-31 renal) was 9.79 µM and the TGI (T-47D breast) was 40.9 µM. It also gave a TGI (SNB-19 CNS) of 23.7 µM, a TGI (NCI-H226 lung) of 17.3 µM and a TGI (UACC-62 melanoma) of 23.7 µM. It also gave a TGI (LOX IMVI melanoma) of 4.12 µM, a TGI (SNB-75 CNS) of 20.2 µM and a TGI (NCI-H460 lung) of 14.1 µM. For the same compound, the TGI (IGROV1 ovarian) was 17.9 µM.
With `Cc1ccccc1N=C(N)Nc1ccccc1C` the TGI (NCI/ADR-RES ovarian) was over 100 µM, the TGI (T-47D breast) was over 100 µM and the TGI (SNB-19 CNS) was over 100 µM. For the same compound, the TGI (NCI-H226 lung) was over 100 µM, the TGI (UACC-62 melanoma) was over 100 µM and the TGI (LOX IMVI melanoma) was over 100 µM. For the same compound, the TGI (SNB-75 CNS) was over 100 µM, the TGI (NCI-H460 lung) was over 100 µM and the TGI (IGROV1 ovarian) was over 100 µM.
`CC(C)[C@H](NC(=O)[C@H](C(C)C)N(Cc1ccccc1)Cc1ccccc1)C(=O)N(C)[C@H](C(=O)N1CCC[C@H]1C(=O)N(C)[C@H](C)C(=O)NCc1ccc(Cl)cc1)C(C)C` (Bn2Val-V[NMeV]P[dNMeA]-{NH(4-Cl-benzyl)}) gave a TGI (NCI/ADR-RES ovarian) of 95.7 µM, a TGI (T-47D breast) of over 100 µM and a TGI (SNB-19 CNS) of over 100 µM. For the same compound, the TGI (NCI-H226 lung) was 9.66 µM, the TGI (UACC-62 melanoma) was 13.8 µM and the TGI (LOX IMVI melanoma) was 3.63 µM. For the same compound, the TGI (SNB-75 CNS) was 29.6 µM, the TGI (NCI-H460 lung) was over 100 µM and the TGI (IGROV1 ovarian) was 8.3 µM.
`Nc1ccc(S(=O)(=O)Nc2nc3ccccc3nc2N2CCCCCC2)cc1` was tested, and the TGI (NCI/ADR-RES ovarian) was over 100 µM, the TGI (UO-31 renal) was 40.8 µM and the TGI (T-47D breast) was over 100 µM. The TGI (SNB-19 CNS) was over 100 µM, the TGI (NCI-H226 lung) was over 100 µM and the TGI (UACC-62 melanoma) was 39.8 µM. It also gave a TGI (LOX IMVI melanoma) of 33.5 µM, a TGI (SNB-75 CNS) of over 100 µM and a TGI (NCI-H460 lung) of 61.2 µM. The TGI (IGROV1 ovarian) was over 100 µM.
`O=C(c1cccs1)N1CCN(C(=O)c2cccs2)C1=S` was tested, and the TGI (NCI/ADR-RES ovarian) was 59 µM, the TGI (UO-31 renal) was 8.5 µM and the TGI (T-47D breast) was 23.8 µM. The TGI (SNB-19 CNS) was 32.7 µM, the TGI (NCI-H226 lung) was 34.7 µM and the TGI (UACC-62 melanoma) was 16.6 µM. It also gave a TGI (LOX IMVI melanoma) of 10.8 µM, a TGI (SNB-75 CNS) of 11.7 µM and a TGI (NCI-H460 lung) of 19.1 µM. It also gave a TGI (IGROV1 ovarian) of 19.6 µM.
Compound `CN(C)CCn1c(CO)nc2c1c(=O)n(C)c(=O)n2C` has a TGI (NCI/ADR-RES ovarian) of over 100 µM, a TGI (UO-31 renal) of over 100 µM and a TGI (T-47D breast) of over 100 µM. For the same compound, the TGI (SNB-19 CNS) was over 100 µM, the TGI (NCI-H226 lung) was over 100 µM and the TGI (UACC-62 melanoma) was over 100 µM. The TGI (LOX IMVI melanoma) was over 100 µM, the TGI (SNB-75 CNS) was over 100 µM and the TGI (NCI-H460 lung) was over 100 µM. For the same compound, the TGI (IGROV1 ovarian) was over 100 µM.
`CCCCCCCCCCCCCCCCCCNc1nc(=O)n(C2CC(O)C(COP(=O)(O)O)O2)cc1F` (stereo not drawn) was tested, and the TGI (NCI/ADR-RES ovarian) was over 100 µM, the TGI (UO-31 renal) was over 100 µM and the TGI (T-47D breast) was over 100 µM. It also gave a TGI (SNB-19 CNS) of over 100 µM, a TGI (NCI-H226 lung) of over 100 µM and a TGI (UACC-62 melanoma) of over 100 µM. The TGI (LOX IMVI melanoma) was over 100 µM, the TGI (SNB-75 CNS) was over 100 µM and the TGI (NCI-H460 lung) was over 100 µM. It also gave a TGI (IGROV1 ovarian) of over 100 µM.
`C=C(C)[C@H]1C2=CC(C)=C(O2)[C@@H](O[C@@H]2c3oc(cc3C)[C@H](C(=C)C)[C@H]3C=C(CC[C@H]2C(=C)C)C(=O)O3)[C@H](C(=C)C)CCC2=C[C@H]1OC2=O` was tested, and the TGI (NCI/ADR-RES ovarian) was over 100 µM, the TGI (UO-31 renal) was over 100 µM and the TGI (T-47D breast) was over 100 µM. The TGI (SNB-19 CNS) was over 100 µM, the TGI (NCI-H226 lung) was over 100 µM and the TGI (UACC-62 melanoma) was over 100 µM. For the same compound, the TGI (LOX IMVI melanoma) was over 100 µM, the TGI (SNB-75 CNS) was over 100 µM and the TGI (NCI-H460 lung) was over 100 µM. For the same compound, the TGI (IGROV1 ovarian) was over 100 µM.
